For this assay, the target named is T1, OTUB1 (Homo sapiens, UniProt Q96FW1).
T1 construct: Recombinant human OTUB1 protein (Abcam, ab157086)
In words: SPR (Biacore 8K, OTUB1 immobilized on CM5 chip). The class given is binding.

T1 sequence (Q96FW1 2-271): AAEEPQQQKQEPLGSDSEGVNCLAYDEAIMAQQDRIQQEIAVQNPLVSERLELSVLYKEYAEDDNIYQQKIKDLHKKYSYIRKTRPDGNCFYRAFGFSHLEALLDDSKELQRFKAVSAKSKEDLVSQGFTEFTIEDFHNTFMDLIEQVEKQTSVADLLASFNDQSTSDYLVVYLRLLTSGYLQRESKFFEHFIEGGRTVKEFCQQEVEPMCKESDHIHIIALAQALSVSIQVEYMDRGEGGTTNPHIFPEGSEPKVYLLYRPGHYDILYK

For the molecule `COc1cc(NC(=O)CCN2CCC(OC(=O)Nc3ccccc3-c3ccccc3)CC2)c(Cl)cc1CNC[C@H](O)c1ccc(O)c2[nH]c(=O)ccc12` [Batefenterol], the Kd was found to be 23.5 µM.

(Values after publication PMC12501277, “The deubiquitylase OTUB1 drives gemcitabine resistance in pancreatic cancer by enhancing pyrimidine metabolism through modulating DHODH mRNA stability” (Cell Death & Disease, 2025).)
